In patent US5576334A, “Acylurea derivatives” (Zeneca Limited, priority 1993, dated 1996):

Key:
[1] = tested on: aggregation of human blood platelets; test: test (a) modified, ex vivo after oral dosing to dogs; type: in vivo; conditions: 1 mg/kg
Protocol: Test (a) may be modified so as to assess the effects of a test compound ex vivo on the aggregation of human blood platelets after administration of the test compound to a laboratory animal, such as a rat, rabbit, guinea pig, mouse or dog. For example, groups of four male, fasted Alderley Park Wistar rats are orally dosed with a test compound or appropriate vehicle, and at suitable time intervals (1, 3, 5 and 8 hours after dosing) animals are anaesthetised with fluothane and bled by heart puncture. Blood is collected into 3.2% citrate (1 part to 9 parts whole blood) and platelet poor plasma (ppp) prepared by centrifugation (4500×g for 10 minutes). […]
Equal volumes (125 μl) of rat ppp and human prp are mixed together, ADP added, and the whole incubated (37° C.) and stirred (900 rpm) in a BioData platelet aggregometer. Aggregation is induced with ADP and agonist EC50 values calculated for human prp/rat ppp mixtures from animals dosed with test compound or vehicle. A mean concentration ratio (concentration of ADP required to cause a 50% aggregation response in human prp/rat ppp mixtures from animals dosed with antagonist, divided by the concentration of ADP to cause 50% aggregation in human prp/rat ppp mixtures from animals dosed with vehicle) is calculated at each time point.

[2] = biological target: T1, purified human platelet fibrinogen receptor (GPIIb/IIIa) (Homo sapiens, UniProt P05106+P08514); test: test (b): GPIIb/IIIa ELISA, inhibition of biotinylated fibrinogen binding; conditions: biotinylated fibrinogen 10 nM, read-out: pIC50 (-log(IC50)), inhibition of biotinylated fibrinogen binding in test (b) (converted)
T1 construct: Glycoprotein IIb/IIIa is isolated from human platelet lysates; from tissue
Protocol: (i) Preparation of human platelet lysates. Platelet rich plasma (PRP) is harvested by centrifugation (1000 rpm, 15 minutes) of whole blood anticoagulated with acid citrate dextrose (trisodium citrate 85 mM, citric acid 70 mM, d-glucose 110 mM) 1 part to 6 parts blood. Prostacyclin (PGI2, 1 μM) is added to the PRP before centrifugation (2400 rpm, 15 mins) and the resulting pellet is resuspended in modified Tyrodes' solution (NACl 130 mM, […], NaHCO3 12 mM, NaH2 PO4 0.5 mM, MgCl2 1 mM, […], Glucose 12 mM, HEPES 5 mM) containing bovine serum albumin 3.5 g/L, PGI2 1 μM and hirudin 0.5 U/ml. The platelet suspension is centrifuged (2400 rpm, 15 minutes) and the resultant pellet resuspended in 500 μl of lysis buffer (octyl glucoside 50 mM, HEPES 10 mM, NaCl 150 mM, CaCl2 1 mM, MgCl2 1 mM, PMSF 1 mM, NEM 10 mM, leupeptin 0.1 mM), agitated at 4° C. for 15 minutes then centrifuged at 24000 rpm, 15 minutes. The supernatant is stored at 4° C. and the pellet re-suspended in 500 μl of lysis buffer. […]
(iii) GPIIb/IIIa ELISA 96 well microtitre plates are coated with 100 μl purified human platelet fibrinogen receptor (GPIIb/IIIa) diluted in coating buffer (Tris-HCl 20 mM, NaCl 150 mM, CaCl2 1 mM, pH7.4) and left overnight at 4° C. […] Colour is allowed to develop for 10-15 minutes before optical densities are read at 650 nm. […]

[3] = tested on: ADP stimulated platelet aggregation in human, citrated, platelet-rich plasma; test: test (a): inhibition of ADP-induced aggregation of human platelet-rich plasma (Born); type: cell-based; conditions: ADP as agonist
Source text: (i) aggregating human, citrated, platelet-rich plasma by addition of adenosine diphosphate (ADP) so as to generate a dose-response curve;
(ii) generating a dose-response curve for ADP stimulated platelet aggregation in the presence of increasing amounts of a test compound (generally in the range 10^-5 M to 10^-10 M); and
(iii) calculating a pA2 value indicating potency of platelet aggregation inhibition for the test compound, averaged over several concentrations, from the calculated 50% response value for ADP aggregation in the presence and absence of the test compound.

T1 sequence (P08514 32-887 limits assumed): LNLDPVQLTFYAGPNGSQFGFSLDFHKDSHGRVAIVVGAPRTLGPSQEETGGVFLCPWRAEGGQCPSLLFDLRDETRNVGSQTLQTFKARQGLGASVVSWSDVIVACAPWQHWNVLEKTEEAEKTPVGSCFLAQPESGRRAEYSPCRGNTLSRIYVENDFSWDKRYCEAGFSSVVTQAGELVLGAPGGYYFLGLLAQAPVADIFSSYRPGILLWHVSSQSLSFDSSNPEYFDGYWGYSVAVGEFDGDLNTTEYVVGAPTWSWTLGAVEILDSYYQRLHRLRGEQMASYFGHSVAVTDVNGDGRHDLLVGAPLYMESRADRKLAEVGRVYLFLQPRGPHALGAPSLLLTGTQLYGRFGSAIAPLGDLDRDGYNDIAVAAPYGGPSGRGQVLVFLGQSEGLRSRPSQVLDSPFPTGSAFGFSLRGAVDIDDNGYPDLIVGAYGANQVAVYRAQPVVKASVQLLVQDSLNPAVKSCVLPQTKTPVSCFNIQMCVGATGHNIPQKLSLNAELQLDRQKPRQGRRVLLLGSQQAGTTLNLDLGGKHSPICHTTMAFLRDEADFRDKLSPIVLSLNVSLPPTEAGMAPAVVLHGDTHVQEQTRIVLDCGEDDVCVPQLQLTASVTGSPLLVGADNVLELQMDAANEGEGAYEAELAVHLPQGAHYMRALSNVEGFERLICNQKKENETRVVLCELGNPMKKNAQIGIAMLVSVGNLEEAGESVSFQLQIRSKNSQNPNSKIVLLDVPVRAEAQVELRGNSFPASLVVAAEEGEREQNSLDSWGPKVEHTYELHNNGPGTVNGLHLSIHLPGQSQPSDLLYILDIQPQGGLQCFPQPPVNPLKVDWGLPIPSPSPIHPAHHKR
T1 sequence (P08514 891-1039 limits assumed): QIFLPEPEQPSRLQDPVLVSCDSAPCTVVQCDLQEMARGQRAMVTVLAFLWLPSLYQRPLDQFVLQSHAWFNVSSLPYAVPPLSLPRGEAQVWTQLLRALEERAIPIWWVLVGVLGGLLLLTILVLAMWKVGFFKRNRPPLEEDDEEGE
T1 sequence (P05106 27-788): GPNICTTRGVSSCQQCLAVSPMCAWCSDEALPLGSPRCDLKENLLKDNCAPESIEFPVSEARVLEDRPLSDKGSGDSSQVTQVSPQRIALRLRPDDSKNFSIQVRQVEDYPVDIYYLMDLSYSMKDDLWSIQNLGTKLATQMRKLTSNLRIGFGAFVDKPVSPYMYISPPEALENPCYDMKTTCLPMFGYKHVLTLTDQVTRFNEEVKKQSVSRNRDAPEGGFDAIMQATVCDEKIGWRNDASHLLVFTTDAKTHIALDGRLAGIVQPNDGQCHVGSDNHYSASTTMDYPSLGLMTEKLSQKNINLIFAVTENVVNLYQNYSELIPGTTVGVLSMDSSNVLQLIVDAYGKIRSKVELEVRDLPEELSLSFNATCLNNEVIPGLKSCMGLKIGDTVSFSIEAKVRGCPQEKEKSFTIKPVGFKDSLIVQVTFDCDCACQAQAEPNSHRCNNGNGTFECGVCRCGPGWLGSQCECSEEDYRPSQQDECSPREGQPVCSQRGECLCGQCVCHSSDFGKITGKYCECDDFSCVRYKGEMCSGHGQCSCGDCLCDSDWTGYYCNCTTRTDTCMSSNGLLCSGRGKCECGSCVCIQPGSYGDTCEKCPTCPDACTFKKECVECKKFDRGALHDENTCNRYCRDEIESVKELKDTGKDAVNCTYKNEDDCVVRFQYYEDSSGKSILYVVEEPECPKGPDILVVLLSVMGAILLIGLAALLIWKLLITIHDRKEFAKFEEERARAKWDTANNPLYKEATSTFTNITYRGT

Row | IC50 [2] [nM] | Structure (SMILES) | duration of activity when dosed orally [1] | pA2, potency of platelet aggregation inhibition in test (a) [3]
1 | – | CC(C)(C)OC(=O)COc1ccc(NC(=O)NC(=O)c2ccc(C(=N)N)cc2)cc1 [Example 2, t-Butyl 4-[3-(4-amidinobenzoyl)ureido]phenoxyacetate] | up to 8 hours | –
2 | 316 | COC(=O)COc1ccc(NC(=O)NC(=O)c2ccc(C(=N)N)cc2)cc1 [Example 1, Methyl 4-[3-(4-amidinobenzoyl)ureido]phenoxyacetate] | – | 7.6
3 | 2.51 | N=C(N)c1ccc(C(=O)NC(=O)Nc2ccc(OCC(=O)O)cc2)cc1 [Example 3, 4-[3-(4-Amidinobenzoyl)ureido]phenoxyacetic acid] | – | 8.4
